Drawing on BindingDB's records for doi:10.7270/Q2H993J6 (Pcmd, 2008), this text covers IC50 for 62 molecules.

pIC50: −log10 of the molar value. *1 amine or outer side, *2 acyl side, *3 side chain or, on linkers, in order; H or OH if unused. Where a SMILES comes first, the peptide text is derived from it. The star is where a group is joined. Cbz = O=C(OCc1ccccc1)*; CO = O=C([*:1])[*:2] A value given as a limit tells only on which side of the number the result lay.

Coagulation factor XI, sequence (P03951 19-387 limits assumed): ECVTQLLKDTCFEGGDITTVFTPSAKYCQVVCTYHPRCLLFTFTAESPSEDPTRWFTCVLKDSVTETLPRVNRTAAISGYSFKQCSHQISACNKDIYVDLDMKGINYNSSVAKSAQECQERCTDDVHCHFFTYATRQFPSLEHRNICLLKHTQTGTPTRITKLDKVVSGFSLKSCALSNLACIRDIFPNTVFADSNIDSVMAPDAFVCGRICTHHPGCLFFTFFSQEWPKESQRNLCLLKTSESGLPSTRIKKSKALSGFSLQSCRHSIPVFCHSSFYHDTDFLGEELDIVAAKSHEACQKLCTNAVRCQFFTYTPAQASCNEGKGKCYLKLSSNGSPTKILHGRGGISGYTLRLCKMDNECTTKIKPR
Coagulation factor XI, sequence (P03951 388-625 limits assumed): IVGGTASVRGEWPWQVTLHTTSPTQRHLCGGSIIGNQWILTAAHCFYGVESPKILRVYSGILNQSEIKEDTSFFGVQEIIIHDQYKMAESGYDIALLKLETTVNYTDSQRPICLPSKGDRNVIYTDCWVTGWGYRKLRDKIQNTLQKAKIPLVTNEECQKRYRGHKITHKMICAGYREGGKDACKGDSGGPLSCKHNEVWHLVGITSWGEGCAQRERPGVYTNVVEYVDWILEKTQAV

The assay addresses Coagulation factor XI (Homo sapiens, UniProt P03951). Put plainly: FXIa inhibitor IC50 values, dose response, biochemical, hits from 1536-well screen (AID 846). The conditions noted are these: pH 7.4; 23 °C.
For `Brc1cccc(CN=Nc2nnn[nH]2)c1` [SMR000279292], the pIC50 was below 4.30. As for `COc1ccc(C)cc1NC(=O)COC(=O)C1CCN(C(=O)c2ccc(Cl)cc2)CC1` [[2-[(2-methoxy-5-methyl-phenyl)amino]-2-oxidanylidene-ethyl] 1-(4-chlorophenyl)carbonylpiperidine-4-carboxylate], the pIC50 was below 4.30. Regarding `Cc1ccc2c(CN3CCN(Cc4ccc5c(c4)OCO5)CC3)cc(=O)oc2c1C` [4-[[4-(1,3-benzodioxol-5-ylmethyl)-1-piperazinyl]methyl]-7,8-dimethyl-1-benzopyran-2-one], the pIC50 was below 4.30. In turn, `COc1ccc(NCC(=O)Nc2cc(S(=O)(=O)N3CCOCC3)ccc2N2CCOCC2)c(OC)c1` [SMR000371196] showed a pIC50 of 5.19.

`COc1cccc(NC(C)(C)c2nnnn2-c2c(C)cccc2C)c1` [N-[2-[1-(2,6-dimethylphenyl)tetrazol-5-yl]propan-2-yl]-3-methoxyaniline] showed a pIC50 below 4.30. For `CC(=O)c1ccc(NC(S)=Nc2cccc3cnccc23)cc1` [1-(4-acetylphenyl)-3-(5-isoquinolinyl)thiourea], the pIC50 was below 4.30.

As for `CCCOC(=O)c1ccc(Oc2c[nH]nc2-c2ccc(OCC(=O)NN)cc2O)cc1` [4-[[(3E)-3-[4-(2-hydrazinyl-2-oxoethoxy)-6-oxo-1-cyclohexa-2,4-dienylidene]-1,2-dihydropyrazol-4-yl]oxy]benzoic acid propyl ester], the pIC50 was below 4.30. In the case of `Cc1cc(/C=C2\SC(=S)N(C)C2=O)c(C)n1-c1cccc(O)c1` [SMR000415846], the pIC50 was below 4.30. Regarding `O=C(Oc1ccc2c(=O)c(Cl)coc2c1)c1cccnc1` [MLS000523505], the pIC50 was below 4.30. As for `CCc1ccccc1-n1c(O)cc(=O)[nH]c1=O`, the figure is below 4.30; as for `O=C(COC(=O)c1cc(=O)c2ccccc2o1)NC1CCCCC1` [[2-(cyclohexylamino)-2-oxidanylidene-ethyl] 4-oxidanylidenechromene-2-carboxylate], below 4.30; as for `Cc1ccccc1C(=O)NC1CCSC1=O` (configuration not stated) [MLS000709097], below 4.30. Molecule `COc1ccc(C=Nn2c(C)cc(C)cc2=O)cc1` [SMR000269659] showed a pIC50 below 4.30. To `NC(=O)NOCc1ccccc1` [phenylmethoxyurea] belongs below 4.30. The molecule `COc1cc2c(cc1/C=C/[N+](=O)[O-])OCO2` [MLS000706395] gave a pIC50 below 4.30. To `O=C(Nc1cc([N+](=O)[O-])ccc1N1CCOCC1)c1ccco1` [N-(2-morpholin-4-yl-5-nitro-phenyl)furan-2-carboxamide] belongs below 4.30; to `Cc1onc(-c2ccccc2)c1C(=O)N(Cc1ccco1)Cc1cccs1` [MLS000771400], below 4.30. `C=C(C)CNC(=S)NN=C(C)c1cccc(NC(C)=O)c1` [SMR000384154]: the pIC50 was below 4.30. Molecule `Cc1cc(NS(=O)(=O)c2ccc(N3C(=O)C4C5C=CC(C5)C4C3=O)cc2)nc(C)n1` (configuration not stated) [N-(2,6-dimethyl-4-pyrimidinyl)-4-(3,5-dioxo-4-azatricyclo[5.2.1.0~2,6~]dec-8-en-4-yl)benzenesulfonamide] showed a negative-log IC50 (pIC50) below 4.30. On to `COC(=O)c1cccc(NC(=O)CSc2nnc[nH]2)c1` [methyl 3-{[(4H-1,2,4-triazol-3-ylthio)acetyl]amino}benzoate], for which the pIC50 was below 4.30.

`O=C(CSc1ncccn1)NN=Cc1cccc(OC2CSC2)c1` gave a pIC50 below 4.30. Turning to `CCc1nnc(NC(=O)c2ccc(NC(=O)C(C)C)cc2)s1` [SMR000290444], the pIC50 was below 4.30. Consider `CC(=O)Nc1ccc(S(=O)(=O)NNC(=O)COc2ccc(Cl)cc2Cl)cc1` [MLS000777409], for which the pIC50 was below 4.30.

`CC1=CC(=NNC(=S)Nc2cccnc2)CC(C)(C)C1` [SMR000385739] showed a negative logarithm of the IC50 (pIC50) below 4.30. As for `CC(C)C(NC(=O)C(Cc1ccccc1)NC(=O)OCc1ccccc1)C(=O)O` (stereo not drawn) [3-methyl-2-[[1-oxo-3-phenyl-2-(phenylmethoxycarbonylamino)propyl]amino]butanoic acid] (Cbz-Phe-Val-OH; configuration not given here), the pIC50 was below 4.30. `Fc1ccc(Nc2ccc3ccccc3n2)c(F)c1` [MLS001004714] gave a pIC50 below 4.30. Turning to `[O-][S+](NC1CCCCC1)C12CC3CC(CC(C3)C1)C2` (configuration not stated), the pIC50 was below 4.30. In turn, `COC(=O)c1[nH]c2cc(OC)ccc2c1NC(=O)CCN1CCCCC1` [MLS000041334] gave a pIC50 below 4.30. To `COc1ccc([N+](=O)[O-])cc1NCc1ccco1` [N-(2-furanylmethyl)-2-methoxy-5-nitroaniline] belongs below 4.30; to `Cc1ccc(NC(=S)NCCc2ccccc2)nc1` [N-(2-Phenethyl)-N -(2-(5-methylpyridyl))thiourea], 5.26; to `CCOC(=O)c1sc2ncn(N=Cc3ccc(O)cc3)c(=O)c2c1C` [SMR000371630], below 4.30. Regarding `C=CCOC(=O)C1C(C)=Nc2[nH]c(=O)[nH]c(=O)c2C1c1ccccc1` (configuration not stated) [7-methyl-2,4-dioxo-5-phenyl-5,8-dihydro-1H-pyrido[2,3-d]pyrimidine-6-carboxylic acid prop-2-enyl ester], the pIC50 was below 4.30. For the molecule `O=C(Nc1nc(-c2ccc(Cl)s2)cs1)c1cccs1` [SMR000065041], the pIC50 is 6.44.

Molecule `O=C(NCc1ccc2c3c(cccc13)C(=O)N2)c1cccs1` [N-[(2-oxo-1H-benzo[cd]indol-6-yl)methyl]thiophene-2-carboxamide] gave a pIC50 below 4.30. In turn, `CCOC(=O)Cc1csc(NC(=O)c2sc3nc4ccc(CC)cc4cc3c2N)n1` [MLS000556627] had a pIC50 below 4.30. As for `CC(Cc1ccccc1)=NNC(=O)CNC(=O)C=Cc1ccccc1` [(Z)-N-[2-oxo-2-[2-(1-phenylpropan-2-ylidene)hydrazinyl]ethyl]-3-phenyl-2-propenamide], the figure is below 4.30. The molecule `S=C(NCCc1ccccc1)Nc1ccc(Br)cn1` [3-(5-bromopyridin-2-yl)-1-(2-phenylethyl)thiourea] showed a negative logarithm of the IC50 (pIC50) below 4.30. For the molecule `CNC(=S)N1CCC(NC(=O)c2ccco2)CC1` [N-[1-(methylcarbamothioyl)piperidin-4-yl]furan-2-carboxamide], the pIC50 was below 4.30. To `C=CCn1c(Cc2cccs2)nnc1SCC(=O)NCc1ccco1` [SMR000153108] belongs below 4.30. The molecule `O=C(COC(=O)CCc1nc2ccccc2c(=O)[nH]1)Nc1ccc(Cl)cn1` [[2-[(5-chloropyridin-2-yl)amino]-2-oxoethyl] 3-(4-oxo-1H-quinazolin-2-yl)propanoate] had a pIC50 below 4.30. As to `N#CCCC1CCCC=C1N(Cc1ccccc1)C(=O)C(Cl)Cl` (configuration not stated) [2,2-bis(chloranyl)-N-[6-(2-cyanoethyl)cyclohexen-1-yl]-N-(phenylmethyl)ethanamide], the negative-log IC50 (pIC50) was below 4.30. `COc1ccccc1/N=C/c1nc(-c2ccccc2)oc1OC(C)=O` [SMR000039734] had a pIC50 of 5.11. To `O=C(NN=C1CCCC1)c1ccccc1OCc1ccc(Cl)cc1` belongs below 4.30. `CC(C)[C@H](NC(=O)[C@H](CCCNC(=N)N)NC(=O)N[C@@H](Cc1ccccc1)C(=O)O)C(=O)N[C@H](C=O)CCCNC(=N)N` [2-[[[[(2S)-5-(diaminomethylideneamino)-1-[[(2S)-1-[[5-(diaminomethylideneamino)-1-oxopentan-2-yl]amino]-3-methyl-1-oxobutan-2-yl]amino]-1-oxopentan-2-yl]amino]-oxomethyl]amino]-3-phenylpropanoic acid] ({Phe-CO}-Arg-Val-Arg-aldehyde) had a pIC50 of 5.42. Take `Cc1cc(C)c(C)c(S(=O)(=O)ON2C(=O)c3ccccc3C2=O)c1C` [2-{[(2,3,5,6-tetramethylphenyl)sulfonyl]oxy}-1H-isoindole-1,3(2H)-dione]: the pIC50 was 5.50. `Cc1sc2c(c1C)C(=O)NC(c1cccc(O)c1)N2` (configuration not stated) [2-(3-hydroxyphenyl)-5,6-dimethyl-2,3-dihydrothieno[2,3-d]pyrimidin-4(1H)-one] gave a pIC50 below 4.30.

With `Cn1nc(C(=O)Nc2nc(-c3ccc(F)cc3)cs2)ccc1=O` [N-[4-(4-fluorophenyl)-1,3-thiazol-2-yl]-1-methyl-6-oxopyridazine-3-carboxamide], the pIC50 is below 4.30. `CCOc1cc(CO)ccc1OCC(=O)N1CCCCC1` [2-[2-ethoxy-4-(hydroxymethyl)phenoxy]-1-(1-piperidinyl)ethanone] showed a pIC50 below 4.30. `COC(=O)c1c(NC(=O)COC(=O)Cn2cnc3ccccc32)sc(C)c1C` [SMR000062436] showed a negative-log IC50 (pIC50) below 4.30. Molecule `O=C1c2ccc(-c3ccc4c(c3)C(=O)N(CCO)C4=O)cc2C(=O)N1CCO` [SMR000282940] had a pIC50 below 4.30.

Regarding `COc1cc(C(=O)NC(=S)N(C)Cc2ccccc2)cc(OC)c1OC` [N-[benzyl(methyl)carbamothioyl]-3,4,5-trimethoxybenzamide], the pIC50 was below 4.30.

In turn, `CONC(=N)c1nonc1N` [MLS001049218] gave a negative logarithm of the IC50 (pIC50) below 4.30. As for `Cc1cc(C)cc(NC(=O)c2ccc([N+](=O)[O-])o2)c1` [MLS000710428], the pIC50 is below 4.30.

Consider `COc1cccc(C(=O)OCCN2CCOCC2)c1`, for which the pIC50 is below 4.30.

In turn, `CCN1CCN(CC(=O)Nc2cc(C)on2)CC1` [2-(4-ethylpiperazin-1-yl)-N-(5-methyl-1,2-oxazol-3-yl)acetamide;oxalic acid] showed a negative logarithm of the IC50 (pIC50) below 4.30. With `O=C(NN=Cc1ccccc1C(=O)O)c1ccccc1Br` [MLS000774668], the pIC50 is below 4.30. On to `O=C1NN(c2ccccc2)C(=O)/C1=C\c1cccc(OC(=O)c2cccs2)c1` [MLS000534153], for which the pIC50 is below 4.30. `COc1ccc(N(CC(=O)NCc2ccc(Cl)cc2)S(=O)(=O)c2ccccc2[N+](=O)[O-])c(OC)c1` [N-[(4-chlorophenyl)methyl]-2-(2,4-dimethoxy-N-(2-nitrophenyl)sulfonylanilino)acetamide] showed a pIC50 below 4.30.

In turn, `CCOc1ccc(-c2c(C)[n+](-c3ccc(OCC)cc3)c3n2CCCCC3)cc1` had a pIC50 of 6.02. To `COc1ccc(OC)c(S(=O)(=O)N2CCCC(C)C2)c1` (configuration not stated) [MLS000035543] belongs below 4.30; to `Cc1nn(CC(=O)c2ccc(Cl)s2)c(C)c1[N+](=O)[O-]` [MLS001006606], below 4.30; to `CCCn1cc(C(=O)OCC)c(=O)c2cc(F)c(F)cc21` [SMR000427606], below 4.30.

For orientation: pIC50 means −log10 of the IC50, conventionally taken in molar units. A higher pIC50 goes with a low IC50.
